Test results: US10617664B2, “Brain derived PPARα ligands” (Rush University Medical Center, priority 2015, dated 2020)

Assays:
Format in all cases: cell-based, mouse
[1] = tested on: PPRE-driven luciferase activity; assay: PPRE-luciferase assay in Pparb-null astrocytes with PPARγ antagonist GW9662; conditions: Pparb-null astrocytes
Procedure: FIG. 16A) Pparb-null primary astrocytes plated at 60-70% confluence in 12-well plates were transfected with 0.25 μg of tkPPREx3-Luc (a PPRE-dependent luciferase reporter construct). Twenty-four hours after transfection, cells were treated with different concentrations of GW9662 for 30 min followed by stimulation with rosiglitazone. After 4 h, luciferase activities were assayed. […] After transfection, cells were also treated with GW9662 followed by stimulation with OCT (FIG. 16B), HEX (FIG. 16C) and HMB (FIG. 16D).
These astrocytes were pre-treated with PPARγ-antagonist GW9662 to nullify the involvement of PPARγ in reporter assay.

[2] = tested on: PPRE-driven luciferase activity; assay: PPRE-luciferase assay in Ppara-null astrocytes transduced with Ppara constructs; conditions: Ppara-null astrocytes (empty vector)
Procedure: Astrocytes plated at 60-70% confluence were transfected with tk-PPREx3-Luc, a PPRE-dependent luciferase reporter construct. After 24 h of transfection, cells were treated with different concentrations of HEX (FIG. 10A), OCT (FIG. 10B) and HMB (FIG. 10C) for 4 h followed by monitoring luciferase activity. Under similar experimental condition, MTT was performed to understand the effect of these ligands on cell viability (FIG. 10D, HEX; FIG. 10E, OCT; FIG. 10F, HMB). Results are mean±SD of three independent experiments. ^ap<0.001 vs. control. Ppara-null astrocytes were transduced with lentivirions containing empty vector (FIG. 10G), FL-Ppara (FIG. 10H), Y314D-Ppara (FIG. 10I), Y464D-Ppara (FIG. 10J), and Y314D/Y464D-Ppara (FIG. 10K) for 48 h followed by transfection with tk-PPREx3-Luc. After 24 h of transfection, cells were treated with different doses of HEX, OCT and HMB for 4 h followed by monitoring luciferase activity. PPRE luciferase activity was assayed in Ppara-null astrocytes transduced with lentivirions containing empty vector (FIG. 10L), FL-Ppara (FIG. 10M), Y314D-Ppara (FIG. 10N), Y464D-Ppara (FIG. 10O), and Y314D/Y464D-Ppara (FIG. 10P) after treatment with different doses of WY14643, fenofibrate, and clofibrate. PPRE luciferase activity was assayed in primary hippocampal neurons transduced with lentivirions containing empty vector (FIG. 10Q), FL-Ppara (FIG. 10R), Y314D-Ppara (FIG. 10S), Y464D-Ppara (FIG. 10T), and Y314D/Y464D-Ppara (FIG. 10U) after treatment with different doses of HEX, OCT and HMB. Results are mean±SD of three independent experiments. ^ap<0.001 vs. control.

[3] = tested on: Ppara-null hippocampal neurons; assay: Dendritic spine density (phalloidin) in transduced Ppara-null hippocampal neurons; conditions: lenti-FL-Ppara
Procedure: Ppara-null hippocampal neurons were transduced with lentivirions containing GFP (vector), FL-Ppara, and Y464D-Ppara for 48 h followed by treatment with vehicle (DMSO) (FIG. 11A), OCT (FIG. 11B), HEX (FIG. 11C), HMB (FIG. 11D), and WY14643 (FIG. 11E) for 24 h. Then neurons were stained for phalloidin to measure spine density. FIG. 11F) A representative picture of dendrite with spines (Cyan color) used for counting area of spine heads. Area of spine heads (FIG. 11G) and number of spines (FIG. 11H) in 10 μm of dendrites. Results are mean±SEM of 5 neurons per group. ^ap<0.05 vs vector only; ^bp<0.05 vs FL-Ppara. AMPA-driven calcium influx was measured in OCT (red), HEX (green) and HMB (purple)-treated Ppara-null hippocampal neurons transduced with lentivirions containing FL-Ppara (FIG. 11I), Y314D-Ppara (FIG. 11J), Y464D-Ppara (FIG. 11K), and Y314D/Y464D-Ppara (FIG. 11L). All neurons were treated with 50 μM of NMDA receptor antagonist N20C to inhibit passive calcium flow through NMDA receptor. (FIG. 11M-P) Similarly NMDA-driven calcium influx was measured in the lentivius-infected Ppara-null hippocampal neurons in the presence of different endogenous ligands. In these cases, Naspm-HCl was treated to stop the passive flow of calcium currents through AMPA receptor. Results are mean of three independent experiments.
Dendritic spines are the crucial mediators of synaptic transmission among central neurons and often serve as a primary candidate for the long term morphological substrates of neuronal plasticity^12,13. Therefore, the effect of these ligands on the increase of spine density in cultured hippocampal neurons was studied. Briefly, mouse Ppara-null hippocampal neurons were transduced with lentivirus containing empty vector, FL-Ppara, or Y464D-Ppara for a week followed by the treatment with OCT, HEX, and HMB for four more days. After that, neurons were labelled with phalloidin to monitor the spine density. […] This observation was further validated by measuring the area of spine heads (FIG. 11F-G) and number of spines (FIG. 11H) in HEX, OCT, and HMB-treated Ppara-null neurons. HEX (FIG. 17G-H), OCT (FIG. 17I-J) and HMB (FIG. 17K-L) stimulated the expression of CREB in Ppara-null hippocampal neurons that were transduced with lentivirons containing the FL-Ppara gene.
Hippocampal regions were dissected from 18-day-old embryonic fetus as described elsewhere (PMID: 25007337), combined and plated in poly-D-lysine coated plate for another 2-3 weeks for branching. After that, these neurons were transduced with GFP-containing lentivirions for 2 d. Neurons were stained with Dylight-554-conjugated phalloidin (Cat #21834; Thermofisher) as per manufactures protocol and visualized in fluorescence microscope. […]

| effect on rosiglitazone-mediated increase in PPRE-luciferase activity [1] | PPRE-driven luciferase activity [2] | Structure (SMILES) | density of spines [3] |
| --- | --- | --- | --- |
| Inhibition | – | O=C(Nc1ccccc1)c1cc([N+](=O)[O-])ccc1Cl [GW9662, reference compound] | – |
| – | unable to induce | Cc1cccc(Nc2cc(Cl)nc(SCC(=O)O)n2)c1C [WY14643, reference compound] | stimulated |
